Where two headings read alike, the source gives them in different places. Numbered stars: 1 amine (or outer) side, 2 acyl side, 3 side chain; on linkers, the order of the positions; unused ones are H or OH. Bridge positions count the residues as written; N and C are the ends. Square brackets hold non-standard residues; d marks the D form. Peptide text beside a SMILES is read from it. * marks the point of attachment. C20 diacid = O=C(O)CCCCCCCCCCCCCCCCCCC(=O)*; γGlu = O=C(O)[C@H](CCC(=O)[*:2])N[*:1]; NMeI = CC[C@H](C)[C@H](NC)C(=O)O; Sar = CNCC(=O)O
What was measured:
[1] = Solubility assessment (turbidity absorbance at 325 nm); assay type: physicochemical; settings: stock 2 mg/ml diluted 1:1, ambient temperature (typically 25°C), n=1; for Solubility, Acetate buffer pH 4: 100 mM acetate buffer pH 4.0; for Solubility, Acetate buffer pH 5: 100 mM acetate buffer pH 5.0; for Solubility, Histidine buffer pH 6: 100 mM histidine buffer pH 6.0; for Solubility, Histidine buffer pH 7: 100 mM histidine buffer pH 7.0; for Solubility, Phosphate buffer pH 6: 100 mM phosphate buffer pH 6.0; for Solubility, Phosphate buffer pH 7: 100 mM phosphate buffer pH 7.0; for Solubility, Phosphate buffer pH 7.5: 100 mM phosphate buffer pH7.5
Procedure, shortened: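 Read-out: turbidity as absorbance at 325 nm (280 nm also read), single samples, ambient temperature of typically 25°C. Samples were a 1:1 mix of 2 mg/ml stock (water, pH 2.5) with 100 mM acetate, histidine or phosphate buffers spanning pH 4.0–7.5. Cut-off: A325 ≤ 0.02 indicates ≥ 1 mg/ml.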

[2] = molecular target: T1, human calcitonin receptor (hCTR2) (Homo sapiens, UniProt P30988); test: hCTR2 assay: induction of cAMP (AlphaScreen cAMP Assay kit) in COS7 cells expressing hCTR2; assay type: cell-based
T1 construct: expressed in transfected cells
T1 sequence (P30988 25-474): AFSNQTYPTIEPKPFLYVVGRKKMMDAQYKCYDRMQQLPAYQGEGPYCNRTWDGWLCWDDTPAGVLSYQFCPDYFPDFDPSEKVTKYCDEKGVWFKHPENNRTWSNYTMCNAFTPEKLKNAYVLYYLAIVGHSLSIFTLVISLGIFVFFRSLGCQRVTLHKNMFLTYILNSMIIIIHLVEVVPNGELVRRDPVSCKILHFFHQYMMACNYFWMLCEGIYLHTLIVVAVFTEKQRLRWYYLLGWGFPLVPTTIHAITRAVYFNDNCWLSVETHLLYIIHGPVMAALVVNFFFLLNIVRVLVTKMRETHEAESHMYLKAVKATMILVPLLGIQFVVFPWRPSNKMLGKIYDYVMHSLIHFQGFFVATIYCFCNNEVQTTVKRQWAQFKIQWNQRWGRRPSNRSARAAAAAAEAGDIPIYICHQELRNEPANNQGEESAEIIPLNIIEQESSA
Procedure, shortened: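 Peptide-induced cAMP in hCTR2-expressing COS7 cells, 15 min at 37° C with phosphodiesterase inhibitor IBMX (100 µM), detected by AlphaScreen; potency from 4PL curves.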

Row | EC50 ([2]; cAMP induction in COS7 cells expressing hCTR2, average of a minimum of 3 determinations, read-out: hCTR2 EC50) [nM] | SMILES | Solubility, Acetate buffer pH 4 [1] | Solubility, Acetate buffer pH 5 [1] | Solubility, Histidine buffer pH 6 [1] | Solubility, Histidine buffer pH 7 [1] | Solubility, Phosphate buffer pH 6 [1] | Solubility, Phosphate buffer pH 7 [1] | Solubility, Phosphate buffer pH 7.5 [1] | EC50 [2] [nM]
1 | 0.082 | CC[C@H](C)[C@@H](C(=O)N[C@@H](CC(C)C)C(=O)N[C@@H](CO)C(=O)N[C@@H](CO)C(=O)N[C@H](C(=O)N[C@@H](CCC(=O)O)C(=O)N[C@H](C(=O)NCC(=O)N[C@@H](CO)C(=O)N[C@@H](CCC(=O)O)C(=O)N[C@H](C(=O)N1CCC[C@H]1C(N)=O)[C@@H](C)O)C(C)C)[C@@H](C)O)N(C)C(=O)CN(C)C(=O)[C@H](Cc1ccccc1)NC(=O)[C@H](CO)NC(=O)[C@H](CO)NC(=O)[C@H](CCCNC(=N)N)NC(=O)[C@H](Cc1c[nH]cn1)NC(=O)[C@H](CC(C)C)NC(=O)[C@H](Cc1ccccc1)NC(=O)[C@H](CCC(=O)O)NC(=O)[C@H](C)NC(=O)[C@H](CC(C)C)NC(=O)[C@H](CCCNC(=N)N)NC(=O)[C@H](CCC(N)=O)NC(=O)[C@@H](NC(=O)[C@H](C)NC(=O)[C@@H]1CSSC[C@H](NC(=O)[C@H](CCCNC(=N)N)NC(=O)CC[C@H](NC(=O)CCCCCCCCCCCCCCCCCCC(=O)O)C(=O)O)C(=O)N[C@@H](CC(N)=O)C(=O)N[C@@H]([C@@H](C)O)C(=O)N[C@@H](C)C(=O)N[C@@H]([C@@H](C)O)C(=O)N1)[C@@H](C)O [Compound 95, [19CD]-isoGlu-RC()NTATC()ATQRLAEFLHRSSF-Gly(Me)-Ile(Me)-LSSTEVGSETP-NH2] ({C20 diacid-γGlu}-RCNTATCATQRLAEFLHRSSF[Sar][NMeI]LSSTEVGSETP-NH2; disulfide 2-7) | SS (SS indicates solubility ≥ 1mg/ml) | SS (SS indicates solubility ≥ 1mg/ml) | SS (SS indicates solubility ≥ 1mg/ml) | SS (SS indicates solubility ≥ 1mg/ml) | SS (SS indicates solubility ≥ 1mg/ml) | SS (SS indicates solubility ≥ 1mg/ml) | SS (SS indicates solubility ≥ 1mg/ml) | 
2 |  | CC[C@H](C)[C@@H](C(=O)N[C@@H](CC(C)C)C(=O)N[C@@H](CO)C(=O)N[C@@H](CO)C(=O)N[C@H](C(=O)N[C@@H](CC(N)=O)C(=O)N[C@H](C(=O)NCC(=O)N[C@@H](CO)C(=O)N[C@@H](CC(N)=O)C(=O)N[C@H](C(=O)N[C@@H](Cc1ccc(O)cc1)C(N)=O)[C@@H](C)O)C(C)C)[C@@H](C)O)N(C)C(=O)[C@H](C)NC(=O)CN(C)C(=O)[C@H](Cc1ccccc1)NC(=O)[C@H](CC(N)=O)NC(=O)[C@H](CC(N)=O)NC(=O)[C@H](CO)NC(=O)[C@H](CO)NC(=O)[C@H](CCCNC(=N)N)NC(=O)[C@H](Cc1c[nH]cn1)NC(=O)[C@H](CC(C)C)NC(=O)[C@H](Cc1ccccc1)NC(=O)[C@H](CCC(=O)O)NC(=O)[C@H](C)NC(=O)[C@H](CC(C)C)NC(=O)[C@H](CCCNC(=N)N)NC(=O)[C@H](CCC(N)=O)NC(=O)[C@@H](NC(=O)[C@H](C)NC(=O)[C@@H]1CSSC[C@H](NC(=O)[C@H](CCCNC(=N)N)NC(=O)CC[C@H](NC(=O)CCCCCCCCCCCCCCCCCCC(=O)O)C(=O)O)C(=O)N[C@@H](CC(N)=O)C(=O)N[C@@H]([C@@H](C)O)C(=O)N[C@@H](C)C(=O)N[C@@H]([C@@H](C)O)C(=O)N1)[C@@H](C)O [Compound 156, [19CD]-isoGlu-RC()NTATC()ATQRLAEFLHRSSNNF-Gly(Me)-A-Ile(Me)-LSSTNVGSNTY-NH2] ({C20 diacid-γGlu}-RCNTATCATQRLAEFLHRSSNNF[Sar]A[NMeI]LSSTNVGSNTY-NH2; disulfide 2-7) | SS (SS indicates solubility ≥ 1mg/ml) | SS (SS indicates solubility ≥ 1mg/ml) | SS (SS indicates solubility ≥ 1mg/ml) | II (II indicates solubility ≤ 1 mg/ml) | SS (SS indicates solubility ≥ 1mg/ml) | II (II indicates solubility ≤ 1 mg/ml) | II (II indicates solubility ≤ 1 mg/ml) | 0.54
